According to ChEMBL document CHEMBL4033746, “Synthesis, potential anti-inflammatory and analgesic activities study of (S)-N-substituted-1-phenyl-3,4-dihydroisoquinoline-2(1H)-carboxamides” (Bioorg Med Chem Lett, 2017):

What was measured:
[1] = test system: Mus musculus; test: Analgesic activity in mouse at 100 mg/kg, ip measured after 60 mins at 58 degC by hot plate method; format: functional
[2] = test system: Mus musculus; test: Anti-inflammatory activity in mouse model of xylene-induced ear edema assessed as inhibition of ear edema at 100 mg/kg, ip pre-treated before xylene injection and measured 1 hr post xylene injection relative to untreated control; format: functional
[3] = test system: Mus musculus; test: Analgesic activity in mouse at 30 mg/kg, ip measured after 60 mins at 58 degC by hot plate method; format: functional
[4] = molecular target: T1, Prostaglandin G/H synthase 1 (Ovis aries, UniProt P05979); test: Inhibition of ovine COX1
T1 sequence (P05979 whole entry): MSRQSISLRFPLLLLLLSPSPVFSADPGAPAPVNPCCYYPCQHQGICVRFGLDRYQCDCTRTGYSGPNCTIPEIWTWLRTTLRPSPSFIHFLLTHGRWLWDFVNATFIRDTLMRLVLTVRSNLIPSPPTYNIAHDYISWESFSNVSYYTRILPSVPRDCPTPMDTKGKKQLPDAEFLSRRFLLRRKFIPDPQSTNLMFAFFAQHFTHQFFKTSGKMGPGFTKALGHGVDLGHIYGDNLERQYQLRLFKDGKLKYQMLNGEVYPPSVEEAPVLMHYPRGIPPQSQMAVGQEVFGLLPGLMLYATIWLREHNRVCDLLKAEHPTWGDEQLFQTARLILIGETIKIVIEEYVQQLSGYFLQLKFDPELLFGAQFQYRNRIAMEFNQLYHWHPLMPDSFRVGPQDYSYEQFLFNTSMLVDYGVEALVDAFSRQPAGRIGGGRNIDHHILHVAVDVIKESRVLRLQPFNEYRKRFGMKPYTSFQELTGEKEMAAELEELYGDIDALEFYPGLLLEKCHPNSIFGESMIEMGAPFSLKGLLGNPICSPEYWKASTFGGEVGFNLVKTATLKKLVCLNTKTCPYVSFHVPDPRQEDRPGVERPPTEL

[5] = test system: Mus musculus; test: Analgesic activity in mouse at 20 mg/kg, ip measured after 60 mins at 58 degC by hot plate method; format: functional
[6] = test system: Mus musculus; test: Anti-inflammatory activity in mouse model of xylene-induced ear edema assessed as inhibition of ear edema at 10 mg/kg, ip pre-treated before xylene injection and measured 1 hr post xylene injection relative to untreated control; format: functional
[7] = test system: Mus musculus; test: Anti-inflammatory activity in mouse model of xylene-induced ear edema assessed as inhibition of ear edema at 20 mg/kg, ip pre-treated before xylene injection and measured 1 hr post xylene injection relative to untreated control; format: functional
[8] = test system: Mus musculus; test: Analgesic activity in mouse at 10 mg/kg, ip measured after 60 mins at 58 degC by hot plate method; format: functional
[9] = test system: Mus musculus; test: Anti-inflammatory activity in mouse model of xylene-induced ear edema assessed as inhibition of ear edema at 30 mg/kg, ip pre-treated before xylene injection and measured 1 hr post xylene injection relative to untreated control; format: functional
[10] = test system: Mus musculus; test: Anti-inflammatory activity in mouse model of xylene-induced ear edema assessed as inhibition of ear edema at 10 to 30 mg/kg, ip pre-treated before xylene injection and measured 1 hr post xylene injection relative to untreated control; format: functional, organism-based

Work on O=C(N(c1ccccc1)c1ccccc1)N1CCc2ccccc2[C@@H]1c1ccccc1 yielded an Activity [1] of 73.3% and an inhibition in vivo at 100 mg/kg [2] of 86.3%.

O=C(NCc1ccccc1)N1CCc2ccccc2[C@@H]1c1ccccc1 gave an Activity [1] of 96.3% and an inhibition in vivo at 100 mg/kg [2] of 77.4%.

In the case of Cc1cccc(NC(=O)N2CCc3ccccc3[C@@H]2c2ccccc2)c1, the Activity [1] is reported as 99.2% and the inhibition in vivo at 100 mg/kg [2] is reported as 86.4%.

In the case of COc1cccc(NC(=O)N2CCc3ccccc3[C@@H]2c2ccccc2)c1, the Activity [1] is reported as 94.6% and the inhibition in vivo at 100 mg/kg [2] is reported as 85.9%.

With O=C(Nc1cccc(F)c1)N1CCc2ccccc2[C@@H]1c1ccccc1 the Activity [1] was 89.8% and the inhibition in vivo at 100 mg/kg [2] was 84.9%.

Compound O=C(Nc1cccc(Cl)c1)N1CCc2ccccc2[C@@H]1c1ccccc1 has an Activity [1] of 100% and an inhibition in vivo at 100 mg/kg [2] of 88%.

Work on O=C(Nc1cccc(Br)c1)N1CCc2ccccc2[C@@H]1c1ccccc1 yielded an Activity [3] of 80.2%, an IC50 [4] of 7.85 µM and an Activity [5] of 63.7%. For the same compound, the inhibition in vivo at 10 mg/kg [6] was 44.2%, the inhibition in vivo at 20 mg/kg [7] was 51.7% and the Activity [8] was 58.7%. The Activity [1] was 89.8%, the inhibition in vivo at 30 mg/kg [9] was 61.2% and the inhibition in vivo at 100 mg/kg [2] was 83.1%.

For O=C(Nc1ccccc1)N1CCc2ccccc2[C@@H]1c1ccccc1, the Activity [3] was 87.2%, the IC50 [4] was 5.42 µM and the inhibition [10] was “Dose-dependent effect”. For the same compound, the Activity [5] was 76.4%, the inhibition in vivo at 10 mg/kg [6] was 60.3% and the inhibition in vivo at 20 mg/kg [7] was 69.5%. The Activity [8] was 69.6%, the Activity [1] was 100% and the inhibition in vivo at 30 mg/kg [9] was 74.7%. The inhibition in vivo at 100 mg/kg [2] was 95%.

With O=C(Nc1c(Cl)cccc1Cl)N1CCc2ccccc2[C@@H]1c1ccccc1 the inhibition [10] was “Dose-dependent effect”, the Activity [1] was 100% and the inhibition in vivo at 100 mg/kg [2] was 92.7%.

COc1ccc2c(c1)c(CC(=O)O)c(C)n2C(=O)c1ccc(Cl)cc1 [INDOMETHACIN] gave an inhibition in vivo at 10 mg/kg [6] of 51 to 90.4%, an Activity [8] of 73.7% and an Activity [1] of 98.6%.
